Where two headings read alike, the source gives them in different places.
Legend:
[1] = target: T1, inducible nitric oxide synthase (iNOS) (Mus musculus, UniProt P29477); assay: iNOS inhibitory activity in LPS-induced RAW264.7 macrophages (nitrite, Griess reagent); assay type: cell-based; settings: read-out: Inhibition (IC50) iNOS (converted)
T1 construct: endogenous in cells; host or cells: RAW264.7 mouse macrophages, LPS-induced
T1 sequence (P29477 1-1144): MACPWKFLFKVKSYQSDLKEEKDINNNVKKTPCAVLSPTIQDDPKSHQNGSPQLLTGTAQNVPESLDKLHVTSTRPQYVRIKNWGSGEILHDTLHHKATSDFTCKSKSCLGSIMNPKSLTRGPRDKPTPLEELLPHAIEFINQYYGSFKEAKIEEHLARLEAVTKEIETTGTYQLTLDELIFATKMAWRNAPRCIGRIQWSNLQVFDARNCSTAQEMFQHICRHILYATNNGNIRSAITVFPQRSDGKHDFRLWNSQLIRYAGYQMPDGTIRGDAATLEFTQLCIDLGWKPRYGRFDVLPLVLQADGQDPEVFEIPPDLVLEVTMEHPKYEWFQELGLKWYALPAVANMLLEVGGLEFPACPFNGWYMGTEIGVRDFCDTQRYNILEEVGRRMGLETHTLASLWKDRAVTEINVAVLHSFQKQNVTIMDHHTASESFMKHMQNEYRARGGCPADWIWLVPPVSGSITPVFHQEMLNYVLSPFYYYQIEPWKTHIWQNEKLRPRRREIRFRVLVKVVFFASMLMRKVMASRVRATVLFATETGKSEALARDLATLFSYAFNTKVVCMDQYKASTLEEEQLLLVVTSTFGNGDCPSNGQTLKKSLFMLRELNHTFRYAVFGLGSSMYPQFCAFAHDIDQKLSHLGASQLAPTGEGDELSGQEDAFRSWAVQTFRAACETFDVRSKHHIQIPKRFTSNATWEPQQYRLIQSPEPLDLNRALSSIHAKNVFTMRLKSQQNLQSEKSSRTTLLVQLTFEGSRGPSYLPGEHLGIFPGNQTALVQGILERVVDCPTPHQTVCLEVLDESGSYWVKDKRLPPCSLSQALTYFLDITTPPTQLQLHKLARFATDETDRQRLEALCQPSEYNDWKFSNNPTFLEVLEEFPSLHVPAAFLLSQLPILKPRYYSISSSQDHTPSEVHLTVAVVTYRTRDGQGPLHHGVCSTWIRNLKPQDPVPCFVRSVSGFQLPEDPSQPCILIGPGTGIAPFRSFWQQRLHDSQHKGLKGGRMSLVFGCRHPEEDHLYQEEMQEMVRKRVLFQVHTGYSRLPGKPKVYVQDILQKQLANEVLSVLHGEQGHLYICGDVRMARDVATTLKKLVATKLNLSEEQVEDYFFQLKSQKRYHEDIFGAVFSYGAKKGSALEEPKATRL
Description: (§1) Phenolic acids and flavonoids used in HPLC analysis as well as all other reagents for biological investigations were obtained from Sigma Chemical Company […]
(§2) Inhibitory activity against key enzymes related to metabolic syndrome (MS) All assays were performed in 96-well plates. Stock solutions of the extract (100 mg/mL), fractions (100 mg/mL), and isolated compounds (1000 µM) were prepared. Tested samples that exceeded […]
(§3) inhibitory concentration (IC50). The percentage of enzyme inhibition was calculated according to […]
(§4) % Inhibition = (A−B) − (C−D) x 100 […]
Inducible nitric oxide synthase (iNOS) inhibitory activity iNOS inhibitory activity was determined in mouse macrophage cells (RAW264.7, Shanghai BOGO Industrial Co., Ltd., China) according to a previously designed method. Phenol red-free RPMI medium from Thermo-Fisher was used to develop macrophages. It was supplemented with 10% bovine calf serum, 100 U/mL of penicillin G sodium from Sigma-Aldrich, and 100 µg/mL of streptomycin (Sigma-Aldrich). Cells (50,000/well) were seeded onto 96-well plates, which were […]

[2] = Ferric reducing antioxidant power (FRAP) assay; parameters: FRAP AA (%) antioxidant activity percentage: concentration or dose not given beside the values; settings: for FRAP antioxidant activity: Trolox equivalent per gram of sample, mean ± SD, n=3; for FRAP AA (%) antioxidant activity percentage: compared to ascorbic acid (=100)
Description: (§5) all of analytical grade. An electrothermal 9100 (UK) was used for the determination of melting points (uncorrected). A Jenway model 6800 spectrophotometer was utilized for recording UV spectra. A Tecan, microplate reader, ((Infinite F50, Switzerland)) was used to measure the absorbances. A Bruker NMR system was used for 1H-NMR (400 MHz) and 13C-NMR (100 MHz).
(§6) The NMR spectra were determined in CD3OH and DMSO-d6. Chemical shifts are given in δ (ppm) relative to the internal standard TMS. Phenolic acids and flavonoids used in HPLC analysis as well as all other reagents for biological investigations were obtained from Sigma Chemical Company […]
(§7) Determination of the antioxidant activity
(§8) 2,2`-Azino-bis(3-ethylbenzothiazoline-6-sulfonic acid) (ABTS), ferric reducing antioxidant power (FRAP), and oxygen radical absorbance capacity (ORAC) assays were performed according to the previously published procedures. Ascorbic acid was used as a reference antioxidant […]
drug. […]

[3] = ABTS radical scavenging antioxidant assay; parameters: ABTS AA (%) antioxidant activity percentage: concentration or dose not given beside the values; settings: for ABTS antioxidant activity: Trolox equivalent per gram of sample, mean ± SD, n=3; for ABTS AA (%) antioxidant activity percentage: compared to ascorbic acid (=100)
Description: as §5, §6, §7, §8
drug. […]

[4] = Oxygen radical absorbance capacity (ORAC) assay; settings: for ORAC antioxidant activity: Trolox equivalent per gram of sample, mean ± SD, n=3; for ORAC AA (%) antioxidant activity percentage: compared to ascorbic acid (=100)
Description: as §5, §6, §7, §8
drug. […]

Recombinant renin = target: T2, Recombinant renin (Homo sapiens, UniProt P00797); assay: Renin inhibitory activity (renin-inhibitor screening assay kit); assay type: biochemical; settings: read-out: Inhibition (IC50) Renin (converted)
T2 construct: purchased BPS Bioscince
T2 sequence (P00797 67-406): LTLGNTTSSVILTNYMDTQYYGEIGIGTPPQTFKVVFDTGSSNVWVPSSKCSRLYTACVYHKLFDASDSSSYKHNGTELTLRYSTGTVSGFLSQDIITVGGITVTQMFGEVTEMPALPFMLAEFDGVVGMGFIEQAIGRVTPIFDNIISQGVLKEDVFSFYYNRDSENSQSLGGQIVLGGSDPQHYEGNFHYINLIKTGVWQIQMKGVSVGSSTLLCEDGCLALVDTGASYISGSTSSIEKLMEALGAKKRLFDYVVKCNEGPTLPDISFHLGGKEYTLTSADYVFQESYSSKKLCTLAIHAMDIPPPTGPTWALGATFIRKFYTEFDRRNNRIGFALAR
Description: all of analytical grade. […]
as §1, §2, §3, §4
Renin inhibitory activity
The renin inhibitory activity was examined according to a previously described method using renin-inhibitor screening assay kit (BPS Bioscince, San Diego, CA, USA) and quinapril as a reference drug. Recombinant renin enzyme (50 μL) was dissolved in 50-mM Tris-HCl buffer (pH 8.0) and 100-mM NaCl (assay buffer) and stored at –80°C for further analysis. Twenty μL of renin substrate (A500 μM in DMSO), 150 μL of assay buffer, and 10 μL of each sample were used to prepare test solutions (10mg/ml in methanol). The blank samples were made using 10 μL of the sample, 20 μL of the substrate, and 160 μL of assay buffer. The positive control samples were created using 10 μL of methanol, 20 μL of substrate, and 150 μL of assay buffer. The positive control and tested samples were combined with 10 μL of the renin solution for the assay in order to catalyze the reaction. After that, the reaction mixture was incubated for 45 minutes at 37 °C.
The fluorescence generated at the 340 nm excitation and 490 nm emission wavelengths was measured using a microplate reader.
Xanthine oxidase (XO) inhibitory activity
Xanthine oxidase (XO) inhibitory potential was carried out according to a previous designed procedure using xanthine oxidase (XO, EC 1.17.3.2; Biovision, USA). Allopurinol was applied as a reference drug. Immediately prior to use, a mixture was made up of 50 μL of sample solution, 35 μL of phosphate buffer (70 mM, pH = 7.5), and 30 μL of new enzyme solution (0.01 units/mL in the same buffer). The reaction was started by adding 60 μL of the substrate solution (150 μM xanthine in the same buffer) following a pre-incubation at 25 °C for 15 minutes. After that, the mixture was incubated at 25 °C for 30 min. After adding 25 μL of 1 M HCl to terminate the reaction, the absorbance was measured at 290 nm with a microplate reader as previously

Row | Structure (SMILES) | IC50 ([1]; extract and fractions, Table S2, RAW264.7 cells) | IC50 ([1]; isolated compounds, Table S7, RAW264.7 cells) | FRAP antioxidant activity [2] | FRAP AA (%) antioxidant activity percentage [2] | ABTS antioxidant activity [3] | ABTS AA (%) antioxidant activity percentage [3] | ORAC antioxidant activity [4] | ORAC AA (%) antioxidant activity percentage [4] | FRAP antioxidant activity ([2]; listed as quercetin) | ABTS antioxidant activity ([3]; listed as quercetin) | IC50 (Recombinant renin; isolated compounds, Table S7) | ORAC antioxidant activity ([4]; listed as quercetin) | IC50 (Recombinant renin; extract and fractions, Table S2)
1 | C=C1C(=O)O[C@H]2[C@H]1CC/C(C)=C/CC[C@@]1(C)O[C@@H]21 [parthenolide, reference compound] | 4.51 µM | 4.51 µM | – | – | – | – | – | – | – | – | – | – | –
2 | O=C1O[C@H]([C@@H](O)CO)C(O)=C1O [Ascorbic acid, reference compound] | – | – | 155.22±0.03 μM TE/g | 100% | 287.78±1.01 μM TE/g | 100% | 390.21±0.99 μM TE/g | 100% | – | – | – | – | –
3 | O=c1c(O)c(-c2ccc(O)c(O)c2)oc2cc(O)cc(O)c12 [P5, quercetin] | – | – | 139.03±0.65 μM TE/g | 89.57% | 244.01±0.29 μM TE/g | 84.79% | 358.95±0.78 μM TE/g | 91.99% | 139.03 ± 0.65 μM TE/g | 244.01 ± 0.29 μM TE/g | 21.9 ± 0.25 µM | 358.95 ± 0.78 μM TE/g | –
4 | CCOC(=O)[C@H](CCc1ccccc1)N[C@@H](C)C(=O)N1Cc2ccccc2C[C@H]1C(=O)O [quinapril, reference compound] | – | – | – | – | – | – | – | – | – | – | 0.045 µM | – | 0.0456 µM

Source: publication PMC10363080, “Modulatory Effect of Pyrus pyrifolia Fruit and its Phenolics on Key Enzymes against Metabolic Syndrome: Bioassay-Guided Approach, HPLC Analysis, and In Silico Study” (Plant Foods for Human Nutrition (Dordrecht, Netherlands), 2023)
